Entries after “also recorded” stand apart in the source; their conditions may differ. Where two headings read alike, the source gives them in different places. The star is where a group is joined. Myristoyl = CCCCCCCCCCCCCC(=O)*
Assays:
[1] = test system: everted sacs prepared from rat intestine; experiment: Glucose uptake into everted sacs of rat intestine; conditions: for Effect on epinephrine stimulation of glucose uptake: epinephrine 10 μM, mPKI 1 μM; for Effect on epinephrine stimulation of glucose uptake / Inhibition of the stimulation of glucose transport by mannose: ICI 118,551 10 μM; for Effect on epinephrine stimulation of glucose uptake / Effect on basal glucose transport: colchicine 5 μM; for Inhibition of the stimulation of glucose transport by mannose: LX4211 2 μM (also inhibits glucose transport itself); for Effect on basal glucose transport: ICI 118,551 10 μM with 2.5 mM glucose
Procedure: Rats weighing around 150 g were fasted overnight before the experiment, and euthanized by cervical dislocation on the day of the experiment. The abdomen was opened by a midline incision, and a segment of around 35 cm of proximal intestine was isolated. The intestinal segment was rinsed with ice-cold Ringer solution (composition (mM): 140 NaCl, 5 KCl, 1 MgCl2, 2 CaCl2, 10 HEPES, 10 TRIS, gassed with 95% O2 and 5% CO2, pH 7.4), and 4-7 everted sacs were prepared, each approximately 3 cm in length, by tying off the ends of the intestinal segments with threads (46). The sacs were filled with Ringer solution containing 5 mM mannitol (Sigma Aldrich) (to maintain osmotic balance) and L-glutamine (2 mM) (Sigma Aldrich) (as an energy source). Each everted sac was transferred to a separate glass beaker containing 50 mL continuously oxygenated Ringer solution with L-glutamine (2 mM), and maintained in a water bath at 37° C. Then, epinephrine 10 μM (Sigma Aldrich), mannose 5 mM (Sigma Aldrich), ICI 118,551 10 μM (Sigma Aldrich), phlorizin 100 μM (Sigma Aldrich), LX4211 2 μM (MedKoo Biosciences, Inc. USA.) or Ringer solution were added to the respective beaker for a 15-min pre-incubation (concentrations indicate final concentrations of the compounds). For the sacs treated with ICI 118,551, phlorizin or LX 4211, the inhibitors were added before mannose or epinephrine. After pre-incubation, 5 mM glucose, or 2.5 mM glucose for the ICI 118,551 control experiment, was added to the external buffer to initiate glucose transport. […] These samples were analyzed using a glucose assay kit based on glucose oxidase (Sigma Aldrich, for details, see below). […] Also for colchicine, a TRIS-free Ringer solution was used, as TRIS interferes with colchicine activity (130). […] We noticed that it was important to take certain precautions during these experiments: the intestine was never allowed to overfill and be stretched while rinsing the intestinal lumen at the time of isolation and filling the everted sac with Ringer solution. Trapping air bubbles inside the everted sac was avoided. Also, the regions of the intestine where mucus was still present were not used for preparing everted sacs. […] The glucose concentration of the samples was assayed by a glucose assay kit (Sigma Aldrich, GOD/POD method). The assay procedure recommended by the kit was modified for small sample volumes as follows. Fifty μL of sample was transferred to a well of a 96-well plate, and at time zero, the reaction was started by adding 100 μL of assay reagent to the first well, and mixing. Each well was allowed to react for exactly 30 min at 37° C. The reaction was stopped by adding 100 μL of 12 N H2SO4 (Merck) into each well, and carefully mixing. The absorbance was measured at 540 nm with a plate reader (Tecan 200).

human β2-AR [2] = biological target: T1, human β2-AR (Homo sapiens, UniProt P07550); experiment: Calcium response (Fluo-4) in Flp-In-293 cells stably transfected with ADRB2 and GNA15; type: cell-based; conditions: for Activation of the β2-AR by sugars (calcium response): sugars at 50 mM, listed in order of decreasing intensity
Procedure: Assessment of β2-AR responses in cultured mammalian cells. […] The cell line expressing both β2-AR and Gα16 was selected in two successive transfection steps. First, Flp-In-293 cells were co-transfected with pMET7-ADRB2-FRT and pOG44. After Flp recombinase-assisted stable integration, an isogenic cell pool expressing the β2-AR was selected in hygromycin-containing medium (100 μg/ml). Second, the isogenic cell pool was cotransfected with p-GNA15 and pIRES-Puro2 (Clontech) in a 5:1 ratio, followed by selection of single clones in medium containing puromycin (0.8 μg/ml). Flp-In-293 cells were maintained in DMEM medium (Gibco), containing penicillin/streptomycin (Sigma) and fetal bovine serum (Sigma) (10%). Hygromycin (100 μg/mL) was added for cells containing the ADRB2 construct, and puromycin (1 μg/mL) was added for the cells containing the GNA15 construct. The Flp-In-293 cells were transferred for β2-AR assays to clear- and flat-bottom 96-well plates in DMEM (Gibco) containing dialyzed fetal bovine serum (Sigma). The plates were coated with fibronectin (Sigma). For that purpose, the fibronectin solution was diluted 40 times in PBS, added in the plate wells (60 μL), and removed again after incubation for 1 h, after which the plates were allowed to dry for 1 h. The Fluo-4 NW kit (Invitrogen) was used for detection of calcium signals following the manufacturer's protocol. All compounds tested were dissolved in HBSS (Sigma) at 37° C. Adrenergic antagonists (Sigma) were always added together with the Fluo4 compound, 50 min before addition of agonist. Agonists were added just prior to the actual measurement of the calcium signals generated. The Flexstation II apparatus (Molecular Devices) was used to perform calcium measurements. After overnight growth of the cells in transfer medium in the aforesaid multiwell-96 plates, the medium was removed, the cells incubated with 100 μL of the loading dye solution (Fluo-4), the plates covered with aluminum foil, and incubated at 37° C. for 30-50 min.

human β2-AR [3] = biological target: T1, human β2-AR; conditions: Xenopus oocytes, CFTR readout
Procedure: Two-Electrode Voltage Clamp (Xenopus oocytes). […] RNA was then transcribed in vitro with the Ribomax kit (Promega) or the mMESSAGE mMACHINE T7 kit (Ambion) following the manufacturer's protocol. RNA was visualized and its quality assessed on RNase-free agarose gels, and stored at −80° C.
For oocyte collection, female Xenopus frogs were anesthetized by submersion in ice water/crushed ice for 30 min. After abdominal incision, the ovarian lobes were pulled out, cut off, and the oocyte clump was placed in ORi. Oocytes were then liberated in ORi-collagenase (1 mg/mL) for 1-2 h on a shaking incubator, and subsequently transferred to a Ca^2+-free solution using one washing step. They were shaken vigorously for maximum 15 min before collecting the individual oocytes in ORi buffer. Stage V oocytes were then selected under the microscope.
For injection of the oocytes, RNA encoding the CFTR and/or β2-AR protein was drawn from a droplet afloat in mineral oil with a glass capillary. Injection volume was 46 nl. The amount of RNA varied between 10 and 25 ng. Injected oocytes were stored in ORi at 16° C. for maximum 3 days until ready for testing. During the measurements, oocytes were continuously clamped to −60 mV. All measurements were recorded using the home-made software, DSPOOC.

[4] = test system: HEK-293 cells (endogenous β2-AR); conditions: 1 μM epinephrine
Procedure: Assessment of β2-AR responses in cultured mammalian cells. […] The cell line expressing both β2-AR and Gα16 was selected in two successive transfection steps. First, Flp-In-293 cells were co-transfected with pMET7-ADRB2-FRT and pOG44. After Flp recombinase-assisted stable integration, an isogenic cell pool expressing the β2-AR was selected in hygromycin-containing medium (100 μg/ml). Second, the isogenic cell pool was cotransfected with p-GNA15 and pIRES-Puro2 (Clontech) in a 5:1 ratio, followed by selection of single clones in medium containing puromycin (0.8 μg/ml). Flp-In-293 cells were maintained in DMEM medium (Gibco), containing penicillin/streptomycin (Sigma) and fetal bovine serum (Sigma) (10%). Hygromycin (100 μg/mL) was added for cells containing the ADRB2 construct, and puromycin (1 μg/mL) was added for the cells containing the GNA15 construct. The Flp-In-293 cells were transferred for β2-AR assays to clear- and flat-bottom 96-well plates in DMEM (Gibco) containing dialyzed fetal bovine serum (Sigma). The plates were coated with fibronectin (Sigma). For that purpose, the fibronectin solution was diluted 40 times in PBS, added in the plate wells (60 μL), and removed again after incubation for 1 h, after which the plates were allowed to dry for 1 h. The Fluo-4 NW kit (Invitrogen) was used for detection of calcium signals following the manufacturer's protocol. […]

[5] = Caco-2 permeability assay; type: in vitro ADME, human; conditions: human; for Papp A→B / Papp B→A: Caco-2, pH 7.4; for Papp at 1 μM: summary, read-out: Permeability in Caco2 assay; for recovery at 1 μM: Caco-2, pH 7.4, Caco-2, 1.0 μM
Excerpt: (§1) Caco-2 cell permeability data of compound CD3-403 (apical to basal (A-B) and basal to apical (B-A), measured at pH 7.4 in both apical and basal compartment)

Caco-2 cells = experiment: Caco-2 permeability assay; type: in vitro ADME, human
Excerpt: as §1

[6] = In vivo oral glucose tolerance test; parameters: species or system rat; conditions: rats
Procedure: Animals and diet. All the experiments were approved by the ethical committee on animal experimentation of the KU Leuven. Wistar rats (Harlan Netherlands B.V.) were maintained on a 12 h light-12 h dark cycle, and fed with standard rat food chow and water ad libitum. The oral glucose tolerance test was performed on normal rats weighing around 250 g, which were fasted for 16 h before the test. Blood was sampled by tail vein puncture, and the blood glucose level was measured by glucometer (Verio OneTouch glucometer). Rats were divided in four groups: one with glucose 2 g/kg or glucose 4 g/kg (Sigma Aldrich), both in the presence or absence of CD3-403. […] Glucose or glucose along with CD3-403, dissolved in 0.9% saline, was administered to rats by oral gavage in the respective groups. […] All experiments were conducted around the same time in the morning.

human β2-AR [7] = biological target: T1, human β2-AR; experiment: Competitive radioligand binding assay with 125I-cyanopindolol on membrane vesicles; parameters: purchased PerkinElmer RBHBE2M; conditions: maximal increase with increasing concentrations
Procedure: TRIS-HCl buffer containing MgCl2 and EGTA was used as incubation and assay buffer, while TRIS-HCl buffer was used as wash buffer. All buffers were cooled and all further steps performed on ice. Membranes were diluted 150 times in assay buffer. […] The mixtures were incubated for 1 h at ambient temperature, and subsequently filtered using a vacuum pump over GF/C filters (Whatman), pre-soaked in 0.5% polyethyleneimine.

[8] = Rattus norvegicus, 1.25 h, phlorizin 100 μM, LX4211 2 μM, glucose accumulated after 75 min
[9] = concentration response curve, 1st experiment, read-out: IC50 (nM) 1st experiment
[10] = concentration response curve, 2nd experiment, read-out: IC50 (nM) 2nd experiment
[11] = summary of screening, read-out: IC50
[12] = Caco-2, test concentration 1.0E−06 M
[13] = second CD3 compounds overview table, epinephrine 5 nM, read-out: IC50
[14] = Caco-2, 1.0 μM, pH 7.4 in both compartments

O=C(CCc1ccc(O)cc1)c1c(O)cc(O)cc1O[C@@H]1O[C@H](CO)[C@@H](O)[C@H](O)[C@H]1O [phlorizin]
inhibition at 100 µM [1, 8]: > 90% | Effect on epinephrine stimulation of glucose uptake ([1]; phlorizin 100 μM): inhibited both basal and enhanced glucose uptake

maltotriose
EC50 (human β2-AR [2]; calcium response (FIG. 2d)): ~10000 µM | Activation of the β2-AR by sugars (calcium response) (human β2-AR [2]): activated

CNC[C@H](O)c1ccc(O)c(O)c1 [epinephrine]
Glucose accumulated after 10 min in the sac ([1]; epinephrine 10 μM in external medium, 5 mM glucose, without epinephrine 440±132): 833 ± 255 µM | Activation of the β2-AR (inward current and conductance) (human β2-AR [3]): activated | Calcium response in non-transfected HEK-293 cells [4]: failed to show a calcium response | Calcium response in non-transfected HEK-293 cells ([4]; listed as Epinephrine): did not elicit a calcium response

CCOc1ccc(Cc2cc([C@@H]3O[C@H](SC)[C@@H](O)[C@H](O)[C@H]3O)ccc2Cl)cc1 [LX4211]
Inhibition of the stimulation of glucose transport by mannose [1]: completely inhibited | inhibition at 2 µM [1, 8]: > 90%

OC[C@H]1O[C@H](O[C@H]2[C@H](O)[C@@H](O)C(O)O[C@@H]2CO)[C@H](O)[C@@H](O)[C@@H]1O (mixture of isomers) [maltose]
Activation of the β2-AR by sugars (calcium response) (human β2-AR [2]): activated

Cc1c[nH]c2cccc(OC[C@H](O)CNC(C)(C)C)c12 [CD3-T1]
IC50 (human β2-AR [2]; [9]): 6 nM | IC50 (human β2-AR [2]; [10]): 0.6 nM | IC50 (human β2-AR [2]; [11]): 6 nM | Papp A→B ([5]; test concentration 1.0E−06 M): 54.7 ×10⁻⁶ cm/s | Papp B→A ([5]; test concentration 1.0E−06 M): 17.8 ×10⁻⁶ cm/s | Papp at 1 μM ([5]; Caco-2): 54.7 ×10⁻⁶ cm/s | efflux ratio at 1 µM [5, 12]: 0.325 | MeanRecovery (A-B) (Caco-2 cells; test concentration 1.0E−06 M): 71% | MeanRecovery (B-A) (Caco-2 cells; test concentration 1.0E−06 M): 87%

O=C(CO)[C@@H](O)[C@H](O)[C@H](O)CO [fructose]
Activation of the β2-AR by sugars (calcium response) (human β2-AR [2]): activated

Myristoylated PKI 14-22 amide (Myristoyl-GRTGRRNAI-NH2; SMILES CCCCCCCCCCCCCC(=O)NCC(=O)N[C@@H](CCCNC(=N)N)C(=O)N[C@H](C(=O)NCC(=O)N[C@@H](CCCNC(=N)N)C(=O)N[C@@H](CCCNC(=N)N)C(=O)N[C@@H](CC(N)=O)C(=O)N[C@@H](C)C(=O)N[C@H](C(N)=O)[C@@H](C)CC)[C@@H](C)O; UniProt P61925 15-23, looked up, fragment)
Effect on epinephrine stimulation of glucose uptake ([1]; phlorizin 100 μM): partially inhibited

COc1cc2c(c(OC)c1OC)-c1ccc(OC)c(=O)cc1[C@@H](NC(C)=O)CC2 [Colchicine]
Effect on basal glucose transport [1]: not basal glucose uptake | Effect on epinephrine stimulation of glucose uptake ([1]; phlorizin 100 μM): completely blocked

COc1ccc(OC)c(C(O)C(C)NC(C)(C)C)c1 (stereo not drawn) [Butoxamine, reference compound]
IC50 (human β2-AR [2]; [13]): 14300 nM

CC(C)NC[C@@H](O)COc1cccc2[nH]cc(CC(=O)N(C)C)c12 [CD3-T3]
IC50 (human β2-AR [2]; [9]): 66 nM | IC50 (human β2-AR [2]; [10]): 78 nM | IC50 (human β2-AR [2]; [11]): 78 nM | Papp A→B ([5]; test concentration 1.0E−06 M): 0.1 ×10⁻⁶ cm/s | Papp B→A ([5]; test concentration 1.0E−06 M): 3.2 ×10⁻⁶ cm/s | Papp at 1 μM ([5]; Caco-2): 0.1 ×10⁻⁶ cm/s | efflux ratio at 1 µM [5, 12]: 32 | MeanRecovery (A-B) (Caco-2 cells; test concentration 1.0E−06 M): 76% | MeanRecovery (B-A) (Caco-2 cells; test concentration 1.0E−06 M): 90%

CC(C)(C)NC[C@@H](O)COc1cccc2[nH]cc(CC(N)=O)c12 [CD3-403]
IC50 (human β2-AR [2]; 5 nM epinephrine, read-out: IC50 of the calcium response elicited by 5 nM epinephrine): 46 nM | IC50 (human β2-AR [2]; [9]): 221 nM | IC50 (human β2-AR [2]; [10]): 46 nM | IC50 (human β2-AR [2]; concentration response curve, old stock, read-out: IC50 (nM) old stock): 40 nM | % INHIBITION (human β2-AR [2]; second CD3 compounds overview table, epinephrine 5 nM): 97% | IC50 (human β2-AR [2]; [13]): 40 nM | IC50 (human β2-AR [2]; [11]): 46 nM | Area under the curve (AUC) of the glucose increase ([6]; glucose 2 g/kg, 100% as baseline, mean±SD, control 8056±2990): 5907±2195 | Increase in blood glucose level after oral glucose bolus ([6]; oral gavage, glucose 2 g/kg, 5 μM (0.05 mg/kg) CD3-403): reduced increase in blood glucose level, which was significant at 60 min | Blood glucose concentration after oral glucose bolus ([6]; oral gavage, glucose 4 g/kg, 5 μM (0.05 mg/kg) CD3-403): trend of decreased glucose concentration | recovery at 1 μM ([5]; pH 7.4 in both compartments, read-out: Mean Recovery (A-B)): 83% | recovery at 1 μM ([5]; pH 7.4 in both compartments, read-out: Mean Recovery (B-A)): 94% | Papp A→B ([5]; test concentration 1.0E−06 M): 0.4 ×10⁻⁶ cm/s | Papp B→A ([5]; test concentration 1.0E−06 M): 1.3 ×10⁻⁶ cm/s | Papp at 1 μM ([5]; Caco-2): 0.4 ×10⁻⁶ cm/s | efflux ratio at 1 µM ([5]; Caco-2, 1.0 μM, B-A/A-B): 3.25 | Papp A→B at 1 μM [5, 14]: 0.4 ×10⁻⁶ cm/s | Papp B→A at 1 μM [5, 14]: 1.3 ×10⁻⁶ cm/s | Cell permeability (Caco-2 cells; assessed by a Caco-2 permeability assay): very low cell permeability | Efflux (Caco-2 cells; test concentration 1.0E−06 M): 3.25 | MeanRecovery (A-B) (Caco-2 cells; test concentration 1.0E−06 M): 83% | MeanRecovery (B-A) (Caco-2 cells; test concentration 1.0E−06 M): 94%

OC[C@H]1O[C@H](O[C@H]2O[C@H](CO)[C@@H](O)[C@H](O)[C@H]2O)[C@H](O)[C@@H](O)[C@@H]1O [trehalose]
Activation of the β2-AR by sugars (calcium response) (human β2-AR [2]): activated

CC(C)(C)NCC(O)COc1cccc2[nH]cc(CC(=O)NN)c12 (racemic) [CD3 X]
IC50 (human β2-AR [2]; [11]): 70 nM | Permeability class in Caco2 assay (Caco-2 cells; summary): low permeability

N[C@H]1C(O)O[C@H](CO)[C@@H](O)[C@@H]1O (stereo partly drawn) [Glucosamine]
Activation of the β2-AR by sugars (calcium response) (human β2-AR [2]): very little effect

Cc1ccc(OCC(O)C(C)NC(C)C)c2c1CCC2 (stereo not drawn) [ICI 118,551]
Effect on basal glucose transport [1]: did not have any effect | Inhibition of the stimulation of glucose transport by mannose [1]: abolished | Effect on epinephrine stimulation of glucose uptake ([1]; phlorizin 100 μM): completely prevented

O=C[C@H](O)[C@@H](O)[C@H](O)CO [xylose]
Activation of the β2-AR by sugars (calcium response) (human β2-AR [2]): activated

CC(C)(C)NCC(O)COc1cccc2c1CC(O)C(O)C2 (stereo not drawn) [nadolol, reference compound]
Inhibition of the epinephrine response (human β2-AR [2]; 200 μM antagonist, 20 nM epinephrine): Inhibition | Inhibition of sugar responses (human β2-AR [2]; 200 μM antagonist, 70 mM sugar): inhibited; also recorded: Inhibition | Block of the calcium response to epinephrine (human β2-AR [2]; Flp-In-293 β2-AR/Gα16 cells, Fluo4 fluorescence (FIG. 2a)): blocked

[Cl-].[Na+] [NaCl]
Increase of 125I-cyanopindolol binding (human β2-AR [7]): roughly 35%

O=CC[C@@H](O)[C@H](O)[C@H](O)CO [2 deoxy-D-glucose]
Activation of the β2-AR by sugars (calcium response) (human β2-AR [2]): activated

Reference: patent US20250312310A1, “Beta2-adrenergic receptor antagonists for use in treating diabetes or obesity” (NovelYeast bv, priority 2021, published 2025)
